Data from patent publication US20050107353A1, “Methods of treating lower urinary tract disorders using losigamone” (Dynogen Pharmaceuticals, Inc., priority 2003, published 2005).
pIC50: −log10 of the molar value. Entries after “also recorded” stand apart in the source; their conditions may differ. Structures can show the parent of a compound that is named as a salt.

Columns and labels:
[1] = system: acetic acid-induced reduction of bladder capacity; experiment: Dilute acetic acid model: bladder capacity by filling cystometry during continuous intravesical acetic acid irritation; type: in vivo, rat; conditions: for post-test: reversal of bladder capacity reduction: rats; for effect on bladder capacity (reversal of acetic acid-induced reduction): increasing doses, rats during continuous irritation
Text: The objective of the current study was to determine the effect of TTX-R sodium channel modulators or use dependent sodium channel modulators on the ability to reverse the reduction in bladder capacity seen following continuous infusion of dilute acetic acid, a commonly used model of lower urinary tract disorders including overactive bladder.
Animal Preparation: Female rats (250-275 g BW) were anesthetized with urethane (1.2 g/kg) and a saline-filled catheter (PE-50) was inserted into either the jugular vein for intravenous (i.v.; saline vehicle) or the proximal duodenum for intraduodenal (i.d.; distilled water or 10% Tween 80 in saline as vehicle) drug administration. Via a midline lower abdominal incision, a flared-tipped PE 50 catheter was inserted into the bladder dome for bladder filling and pressure recording and secured by ligation. The abdominal cavity was moistened with saline and closed by covering with a thin plastic sheet in order to maintain access to the bladder for emptying purposes. Fine silver or stainless steel wire electrodes were inserted into the external urethral sphincter (EUS) percutaneously for electromyography (EMG).
Experimental Design: Saline was continuously infused at a rate of 0.055 ml/min via the bladder filling catheter for ≧60 minutes to obtain a baseline of lower urinary tract activity (continuous cystometry; CMG). Following the control period, a 0.25% acetic acid solution in saline was infused into the bladder at the same flow rate to induce bladder irritation. Following 30 minutes of AA infusion, 3 vehicle injections were made at 20 minute intervals to determine vehicle effects, if any. Subsequently, increasing doses (2-5) of Na^+ channel blocking compound were administered intravenously or intraduodenaly at half-log order increments at 30 or 60 minute intervals in order to construct a cumulative dose-response relationship. At the end of the control saline cystometry period, the third vehicle, and 20-50 minutes following each subsequent treatment, the infusion pump was stopped, the bladder was emptied by fluid withdrawal via the infusion catheter and a single filling cystometrogram was performed at the same flow rate in order to determine changes in bladder capacity caused by the irritation protocol and subsequent intravenous or intraduodenal drug administration.
Data were analyzed by non-parametric ANOVA for repeated measures (Friedman Test) with Dunn's Multiple Comparison test. All comparisons were made from the last vehicle measurement (AA/Veh 3) or the lowest dose of drug. P<0.050 was considered significant.

[2] = molecular target: T1, TTX-R sodium currents in bladder afferent neurons (Rattus norvegicus, UniProt Q62968); experiment: Bladder sensory neuron sodium channel current model: whole cell patch-clamp of TTX-R sodium currents; type: cell-based; conditions: for concentration-response effect on TTX-R sodium current amplitude: bath application, cumulative concentrations, bladder afferent neurons; for effect on inward TTX-R sodium current: 100 μM bath application, labeled bladder afferent neuron
T1 construct: Whole cell patch-clamp recordings were obtained from dye-labeled DRG neurons; endogenous in cells; host or cells: primary dissociated L6/S1 dorsal root ganglion neurons of Sprague-Dawley rats, dye-labelled bladder afferents
Method: Labeling of bladder afferent neurons: Adult female Sprague-Dawley rats (150-300 g) were deeply anesthetized with pentobarbital anesthesia and placed on isoflurane maintenance anesthesia. A ventral midline incision was made through the abdominal skin and musculature, exposing the urinary bladder. Five injections of the fluorescent dye Di-I (5 μl each of 25 mg/ml Di-I in DMSO) or Fast Blue (4% w/v) were made into the bladder smooth muscle wall to label primary afferent fibers innervating the bladder. The area was rinsed with sterile saline to eliminate nonspecific spread of dye, and the incision was closed. Rats recovered for 5-12 days to allow for transport of fluorescent dye from distal terminals to the cell somata of dorsal root ganglion (DRG) neurons. Labeled neurons were identified in vitro using fluorescence optics.
Neuronal cultures: Di-I injected rats were euthanized with pentobarbital anesthesia. Lumbar (L6) and sacral (S1) DRG were dissected from the vertebral column and placed in Dulbecco's modified Eagles medium (DMEM) containing 0.3% collagenase B for 60 min at 37° C. The cell solution was exchanged for a 0.25% trypsin in calcium/magnesium-free Dulbecco's phosphate-buffered saline solution, and further digested for 30 min at 37° C. Following a wash in fresh DMEM, ganglia were dissociated by a series of triturations using fire-polished Pasteur pipettes. DRG cells were plated on polylysine-treated glass coverslips. Cells were plated at a density of 0.5 DRG per coverslip in 1 ml DMEM supplemented with 10% FBS, NGF, and 100 U/ml penicillin/streptomycin. All experimental procedures involving rats were conducted under a protocol approved by an Institutional Animal Care and Use Committee. Small variations in the concentrations of reagents, incubation times, etc. may occur and are expected to give similar results.
In most experiments, neurons were incubated in culture medium containing the FITC-labeled lectin BSI-B4 (IB4, […]) at 37° C. for 5 min before recording. The coverslip was washed with extracellular recording solution for 1 min before being placed in a recording chamber mounted on the stage of an inverted microscope equipped with fluorescence optics.
Electrophysiology: Electrophysiologic evaluation of neurons occurred within 4-48 h of plating. Whole cell patch-clamp recordings were obtained from dye-labeled DRG neurons. Recordings were obtained in an extracellular recording solution (pH 7.4, 295-320 mosM) consisting of (in mM) 140 NaCl, 3 KCl, 1 CaCl2, 1 MgCl2, 0.1 CdCl2, 10 HEPES, and 10 glucose. Patch-clamp electrodes were pulled from borosilicate glass and fire polished to 2-6 MOhm tip resistance. The internal pipette recording solution (pH 7.3, 290-300 mosM) consisted of (in mM) 140 CsCl, 10 NaCl, 1 EGTA, and 10 HEPES. Tetrodotoxin (TTX, 0.3 uM) was included in the extracellular solution to block TTX-sensitive sodium currents. Variations in the concentrations and types of reagents used for solutions may occur and are expected to give similar results.
Sodium currents were recorded from DRG neurons using standard electrophysiologic protocols. Neurons were typically voltage-clamped at −50 mV. Currents were recorded using a patch-clamp amplifier and digitized at 3-10 kHz for acquisition. Neuronal input resistance and membrane capacitance were determined from the amplitude and kinetics of the current response to a voltage pulse from a holding potential of −50 mV. Series resistance was compensated 75-95% for all recordings. Leak currents were cancelled online using a standard P/4 protocol. Depolarizing steps from −90, −70, or −50 mV to 0 mV were delivered every 5 or 30 sec during drug application to determine the effects of drugs on sodium currents. For all cell types, baseline responses were recorded for a minimum of 10 min to ensure that the kinetics of the response was stable. A wash out or recovery period usually followed the drug application period. […]

T1 sequence (Q62968 whole entry): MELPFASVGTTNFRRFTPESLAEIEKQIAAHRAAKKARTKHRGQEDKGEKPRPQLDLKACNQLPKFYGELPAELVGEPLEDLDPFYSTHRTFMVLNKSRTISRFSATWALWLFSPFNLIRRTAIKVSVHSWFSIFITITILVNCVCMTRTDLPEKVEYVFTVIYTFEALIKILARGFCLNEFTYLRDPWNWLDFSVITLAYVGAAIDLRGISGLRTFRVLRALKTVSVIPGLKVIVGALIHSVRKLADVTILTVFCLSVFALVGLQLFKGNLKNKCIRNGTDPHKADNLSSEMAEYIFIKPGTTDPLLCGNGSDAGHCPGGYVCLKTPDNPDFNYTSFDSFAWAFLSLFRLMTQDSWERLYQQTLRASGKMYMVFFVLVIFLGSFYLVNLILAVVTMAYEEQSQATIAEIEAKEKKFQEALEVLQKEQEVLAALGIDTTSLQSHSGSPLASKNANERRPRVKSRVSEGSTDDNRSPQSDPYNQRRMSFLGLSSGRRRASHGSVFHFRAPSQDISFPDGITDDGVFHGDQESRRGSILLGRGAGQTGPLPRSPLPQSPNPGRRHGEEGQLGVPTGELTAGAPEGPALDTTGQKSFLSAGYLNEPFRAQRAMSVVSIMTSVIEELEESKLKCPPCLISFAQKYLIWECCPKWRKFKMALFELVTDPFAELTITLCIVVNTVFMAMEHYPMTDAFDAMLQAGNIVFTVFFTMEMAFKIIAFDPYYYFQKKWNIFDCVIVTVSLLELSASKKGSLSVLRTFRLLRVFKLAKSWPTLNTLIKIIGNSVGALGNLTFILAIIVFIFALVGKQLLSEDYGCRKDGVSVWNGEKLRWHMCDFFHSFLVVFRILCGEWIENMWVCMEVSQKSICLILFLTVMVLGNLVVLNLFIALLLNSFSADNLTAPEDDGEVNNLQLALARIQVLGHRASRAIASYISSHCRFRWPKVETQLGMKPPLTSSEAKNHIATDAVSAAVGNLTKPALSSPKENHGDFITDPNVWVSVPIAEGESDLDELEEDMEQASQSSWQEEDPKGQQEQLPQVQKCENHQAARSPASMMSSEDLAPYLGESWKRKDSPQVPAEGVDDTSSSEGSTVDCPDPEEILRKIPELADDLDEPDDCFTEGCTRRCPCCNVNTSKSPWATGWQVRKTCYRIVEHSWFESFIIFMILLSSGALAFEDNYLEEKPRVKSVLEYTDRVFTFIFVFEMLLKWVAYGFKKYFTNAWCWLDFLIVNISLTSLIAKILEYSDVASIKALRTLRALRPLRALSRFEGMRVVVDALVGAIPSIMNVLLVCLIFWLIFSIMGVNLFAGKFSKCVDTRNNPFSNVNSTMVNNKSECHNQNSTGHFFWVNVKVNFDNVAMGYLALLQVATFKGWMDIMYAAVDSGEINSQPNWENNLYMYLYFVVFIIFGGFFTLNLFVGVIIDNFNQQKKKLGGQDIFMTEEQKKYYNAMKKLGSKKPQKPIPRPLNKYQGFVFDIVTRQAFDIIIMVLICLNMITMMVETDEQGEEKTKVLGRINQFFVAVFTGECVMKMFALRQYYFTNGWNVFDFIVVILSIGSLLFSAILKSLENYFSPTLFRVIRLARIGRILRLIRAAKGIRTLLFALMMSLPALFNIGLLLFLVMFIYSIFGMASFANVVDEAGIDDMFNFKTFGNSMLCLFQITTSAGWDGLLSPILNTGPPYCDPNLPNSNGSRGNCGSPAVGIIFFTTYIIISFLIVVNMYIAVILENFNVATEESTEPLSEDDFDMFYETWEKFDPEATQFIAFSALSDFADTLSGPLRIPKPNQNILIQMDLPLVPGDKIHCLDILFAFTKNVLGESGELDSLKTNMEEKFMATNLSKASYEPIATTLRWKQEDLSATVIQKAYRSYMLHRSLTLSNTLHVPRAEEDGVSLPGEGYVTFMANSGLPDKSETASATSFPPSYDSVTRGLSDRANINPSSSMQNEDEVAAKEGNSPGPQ

`COC1=CC(=O)O[C@@H]1[C@@H](O)c1ccccc1Cl` (relative stereo) [Losigamone, (5R*)-5-[(alphaS*)-o-Chloro-alpha-hydroxybenzyl]-4-methoxy-2(5H)-furanone] was tested, and the “post-test: reversal of bladder capacity reduction” value ([1]; 300 mg/kg dose, intraduodenal) was “statistically significant reversal of bladder capacity reduction”, the “effect on bladder capacity (reversal of acetic acid-induced reduction)” value ([1]; intraduodenal) was “capable of partially reversing the reduction in bladder capacity caused by acetic acid in a dose-dependent fashion; also recorded: dose-dependent and statistically significant reversal” and the “effect on bladder capacity (reversal of acetic acid-induced reduction)” value ([1]; intraduodenal, listed as losigamone) was “dose-dependent, statistically significant increases in bladder capacity”.

In the case of `Nc1c(Br)cc(Br)cc1CNC1CCC(O)CC1` (centres unmarked) [Ambroxol], the “post-test: reversal of bladder capacity reduction” value ([1]; 300 mg/kg dose, intraduodenal) was “statistically significant reversal of bladder capacity reduction”, the “effect on bladder capacity (reversal of acetic acid-induced reduction)” value ([1]; intraduodenal) was “capable of partially reversing the reduction in bladder capacity caused by acetic acid in a dose-dependent fashion; also recorded: dose-dependent and statistically significant reversal” and the “effect on bladder capacity (reversal of acetic acid-induced reduction)” value ([1]; intraduodenal, listed as ambroxol) was “dose-dependent, statistically significant increases in bladder capacity”. The “concentration-response effect on TTX-R sodium current amplitude” value [2] was “concentration-dependent reversible block; also recorded: reversible, concentration-dependent reduction in current amplitude” and the pIC50 ([2]; three bladder afferent neurons, 2-3 minute application, TTX 300 nM present, read-out: estimated IC50 for block of TTX-R sodium currents) was about 4.82.

With `NC(=O)N1c2ccccc2C=Cc2ccccc21` [Carbamazepine] the “post-test: reversal of bladder capacity reduction” value ([1]; 100 mg/kg dose, intraduodenal) was “statistically significant reversal of bladder capacity reduction”, the “effect on bladder capacity (reversal of acetic acid-induced reduction)” value ([1]; intraduodenal) was “capable of partially reversing the reduction in bladder capacity caused by acetic acid in a dose-dependent fashion; also recorded: dose-dependent and statistically significant reversal” and the “effect on bladder capacity (reversal of acetic acid-induced reduction)” value ([1]; intraduodenal, listed as carbamazepine) was “dose-dependent, statistically significant increases in bladder capacity”.

In the case of `Cc1cccc(C)c1OCC(C)N` (centres unmarked) [Mexiletine, 1-(2,6-Dimethylphenoxy)-2-propanamine hydrochloride], the “post-test: reversal of bladder capacity reduction” value ([1]; 30 mg/kg dose, intraduodenal) was “statistically significant reversal of bladder capacity reduction”, the “effect on bladder capacity (reversal of acetic acid-induced reduction)” value ([1]; intraduodenal, hydrochloride) was “capable of partially reversing the reduction in bladder capacity caused by acetic acid in a dose-dependent fashion; also recorded: dose-dependent and statistically significant reversal” and the “effect on bladder capacity (reversal of acetic acid-induced reduction)” value ([1]; intraduodenal, listed as mexilitine, hydrochloride) was “dose-dependent, statistically significant increases in bladder capacity”.

With `C[C@H](NCc1ccc(OCc2ccccc2F)cc1)C(N)=O` [Ralfinamide, (+)-2(S)-[4-(2-Fluorobenzyloxy)benzylamino]propionamide] the “post-test: reversal of bladder capacity reduction” value ([1]; 30 mg/kg dose, intraduodenal) was “statistically significant reversal of bladder capacity reduction”, the “effect on bladder capacity (reversal of acetic acid-induced reduction)” value ([1]; intraduodenal) was “capable of partially reversing the reduction in bladder capacity caused by acetic acid in a dose-dependent fashion; also recorded: dose-dependent and statistically significant reversal” and the “effect on bladder capacity (reversal of acetic acid-induced reduction)” value ([1]; intraduodenal, listed as ralfinamide) was “dose-dependent, statistically significant increases in bladder capacity”. For the same molecule, the “effect on inward TTX-R sodium current” value [2] was “blocked the current” and the “peak TTX-R sodium current” value ([2]; 100 μM, three neurons, holding potential −50 mV, pulse to 0 mV) was 36±6 % of control.

For `CN1CCN(c2ncc(-c3cc(Cl)cc(Cl)c3Cl)c(N)n2)CC1` [Sipatrigine, 4-Amino-2-(4-methylpiperazin-1-yl)-5-(2,3,5-trichlorophenyl)pyrimidine], the “post-test: reversal of bladder capacity reduction” value ([1]; 30 mg/kg dose, intraduodenal) was “statistically significant reversal of bladder capacity reduction”, the “post-test: reversal of bladder capacity reduction” value ([1]; 100 mg/kg dose, intraduodenal) was “statistically significant reversal of bladder capacity reduction” and the “effect on bladder capacity (reversal of acetic acid-induced reduction)” value ([1]; intraduodenal) was “capable of partially reversing the reduction in bladder capacity caused by acetic acid in a dose-dependent fashion; also recorded: dose-dependent and statistically significant reversal”. The “effect on bladder capacity (reversal of acetic acid-induced reduction)” value ([1]; intraduodenal, listed as sipatrigine) was “dose-dependent, statistically significant increases in bladder capacity”, the “effect on inward TTX-R sodium current” value [2] was “blocked the current” and the “concentration-response effect on TTX-R sodium current amplitude” value [2] was “concentration-dependent reduction in current amplitude”.

In the case of `Cc1ccc(C(=O)C(C)CN2CCCCC2)cc1` (centres unmarked) [Tolperisone], the “effect on bladder capacity (reversal of acetic acid-induced reduction)” value ([1]; intravenous) was “Neither Vinpocetine (FIG. 9) nor intravenous Tolperisone (FIG. 10) demonstrated statistically significant effects on bladder capacity; also recorded: not capable of significantly reversing the reduction in bladder capacity caused by acetic acid” and the “effect on bladder capacity (reversal of acetic acid-induced reduction)” value ([1]; intravenous, listed as tolperisone) was “neither intraduodenal vinpocetine (n=6; 3-100 mg/kg) nor intravenous tolperisone (n=4; 3-10 mg/kg) demonstrated statistically significant effects on bladder capacity”.

For `CCOC(=O)C1=C[C@]2(CC)CCCN3CCc4c(n1c1ccccc41)[C@@H]32` [Vinpocetine], the “effect on bladder capacity (reversal of acetic acid-induced reduction)” value ([1]; intraduodenal) was “not capable of significantly reversing the reduction in bladder capacity caused by acetic acid; also recorded: Neither Vinpocetine (FIG. 9) nor intravenous Tolperisone (FIG. 10) demonstrated statistically significant effects on bladder capacity” and the “effect on bladder capacity (reversal of acetic acid-induced reduction)” value ([1]; intraduodenal, listed as vinpocetine) was “neither intraduodenal vinpocetine (n=6; 3-100 mg/kg) nor intravenous tolperisone (n=4; 3-10 mg/kg) demonstrated statistically significant effects on bladder capacity”.
